Active and inactive are the calls of the source. Where only a bound is given, the exact number is not on record here.

The nature of experiment [1]: inhibitors of Ran–importin-beta complex, dose response, biochemical, plate reader, dry powder (AID 493048). Also on record: species or system Homo sapiens.
Experiment [2] has as its target Mothers against decapentaplegic homolog 3 (Homo sapiens, UniProt P84022). Kind of experiment: Smad3 binding inhibitors, lysate ELISA, dose response, cell lysate, secondary confirmation, chemiluminescent ELISA, HEK293 lysate (AID 1058). It counts as functional. (In general: In an ELISA, binding on a coated surface is turned into a signal by an enzyme label.)
Experiment [3] in a line: Luminescence Cell-Based Dose-Confimation HTS to Identify Inhibitors of 5'UTR Stem-Loop Driven Alpha-Synuclein mRNA Translation in H4 Neuroglioblastoma Cells. [Related pubchem assays: 1827 (Project Summary), 1813 (Primary HTS)]. The class given is functional.
The target in a further experiment is Trypsin (Sus scrofa, UniProt P00761). Nature of the experiment: porcine trypsin inhibitors, dose response, selectivity assay for Rce1 protease inhibitor project, biochemical, quenched peptide fluorescence, cherry-pick (AID 488789).
Experiment [4] has as its target Peroxisome proliferator-activated receptor gamma/Nuclear receptor coactivator 3 (Homo sapiens, UniProt P37231). It counts as functional.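 Note: agonist potency for raising coactivator recruitment to the receptor.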
Experiment [5] deals with Peroxisome proliferator-activated receptor gamma/Nuclear receptor coactivator 1 (Homo sapiens, UniProt P37231). It counts as functional.
For experiment [6], the target named is Peroxisome proliferator-activated receptor gamma/Nuclear receptor coactivator 2 (Homo sapiens, UniProt P37231). The class given is functional.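 Note: agonist potency for raising coactivator recruitment to the receptor.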
The target in experiment [7] is T1, Heat shock 70 kDa protein 1A (Homo sapiens, UniProt P0DMV8). Nature of the experiment: Hsp70 inhibitors, biochemical, TR-FRET (AID 786). A general note: Time-resolved FRET reads energy transfer from a long-lived donor to a nearby acceptor.
Experiment [8] has as its target T1, Heat shock 70 kDa protein 1A. Kind of experiment: Hsp70 inhibitors, probe displacement, primary screen, biochemical, fluorescence polarization (AID 583). (Polarisation of emitted light reports the rotation of a fluorescent probe.)
Experiment [9] concerns the target T2, Eukaryotic translation initiation factor 2-alpha kinase 3 (Homo sapiens, UniProt Q9NZJ5). Kind of experiment: Dose response cell-based high-throughput screening assay to measure PERK inhibition. [Related pubchem assays: 1416 ]. It counts as functional.
In experiment [10] the target is T2, Eukaryotic translation initiation factor 2-alpha kinase 3. Kind of experiment: Counterscreen assay for PERK inhibitors: Dose response cell-based high throughput screening assay to measure inhibition of PERK at 6 hours. [Related pubchem assays: 1522, 1416 ]. It counts as functional.
The target of the next experiment is Leucine aminopeptidase (Plasmodium falciparum 3D7, UniProt Q8IL11). Nature of the experiment: P. falciparum M17LAP inhibitors, primary screen, biochemical, fluorogenic H-Leu-NHMec substrate, 1536-well (AID 1619). The class given is functional.
Experiment [11] can be described thus: A cytotoxicity screen of small molecule inhibitors of the PhoP region in Salmonella typhi identified in the primary screen. [Related pubchem assays: 1850, 1864, 1985 ]. The class given is functional.
The target of the next experiment is NS3 (Hepatitis C virus, UniProt A3EZJ3). Kind of experiment: PubChem AID 2173. Further details: species or system Hepacivirus hominis.
Experiment [12] addresses C-C chemokine receptor type 6 (Homo sapiens, UniProt P51684). Kind of experiment: CCR6 receptor antagonists, dose response, cell-based, luminescent beta-arrestin readout (AID 504728). The class given is functional.
The target of another experiment is Beta-galactosidase (Escherichia coli, UniProt Q8VNN2). Nature of the experiment: beta-galactosidase enzyme inhibitors and activators, dose response, artefact control for CCR6 antagonist project, biochemical, E. coli enzyme, set 3 (AID 504712). It counts as functional.
A further experiment concerns the target Neutrophil collagenase (Homo sapiens, UniProt P22894). Kind of experiment: MMP13 inhibition and MMP selectivity, late-stage follow-up, selectivity assay for MMP13 inhibitor project, biochemical, probe development, late stage results, panel member MMP-8 [IC50 Assay] (AID 2067).
A further experiment concerns the target Protein Rev (Human immunodeficiency virus type 1 group M subtype B (isolate WMJ22)(HIV-1), UniProt P05866). Nature of the experiment: HIV-1 Rev-RRE RNA binding disruptors, dose response, biochemical, protein-RNA interaction (AID 842). Also on record: species or system Human immunodeficiency virus 1.
Another experiment relates to HEK293. Nature of the experiment: Fluorescence-based counterscreen for potentiators or agonists of NPY-Y2: cell-based high-throughput dose response assay to identify inhibitors of cyclic nucleotide gated ion channel (CNGC) activity. In this assay, the parental HEK293 cell line transfected with a cyclic-nucleotide gated ion channel (CNGC)-based cAMP sensor is used to measure inhibition of isoproterenol-induced CNGC activity by test compound. It counts as functional. Particulars: Homo sapiens.

For experiment [13], the target named is T3, Neuropeptide Y receptor type 2 (Homo sapiens, UniProt P49146).
T3 sequence (P49146 whole entry): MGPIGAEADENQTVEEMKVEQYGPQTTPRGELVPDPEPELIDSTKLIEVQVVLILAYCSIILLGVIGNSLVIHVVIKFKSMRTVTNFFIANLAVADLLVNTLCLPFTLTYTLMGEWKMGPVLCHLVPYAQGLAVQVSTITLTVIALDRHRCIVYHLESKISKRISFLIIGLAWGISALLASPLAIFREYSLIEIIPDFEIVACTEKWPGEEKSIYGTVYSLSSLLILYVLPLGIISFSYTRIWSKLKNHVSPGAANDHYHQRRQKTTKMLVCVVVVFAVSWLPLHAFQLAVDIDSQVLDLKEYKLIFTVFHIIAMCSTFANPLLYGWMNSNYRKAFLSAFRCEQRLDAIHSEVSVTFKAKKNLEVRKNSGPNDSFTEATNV
Nature of the experiment: Fluorescence-based cell-based high-throughput dose response assay for agonists of NPY-Y2. [Related pubchem assays: 1703 (Screening assay (CNGC inhibitors).), 1359 (Screening assay (NPY-Y2 potentiators or agonists).), 1304 (Screening assay (NPY-Y1 potentiators or agonists).), 1710 (Screening assay (NPY-Y2 agonists).), 1791 (Summary AID.)]. The class given is functional.

The target in experiment [14] is T4, Neuropeptide Y receptor type 1 (Homo sapiens, UniProt P25929).
T4 sequence (P25929 whole entry): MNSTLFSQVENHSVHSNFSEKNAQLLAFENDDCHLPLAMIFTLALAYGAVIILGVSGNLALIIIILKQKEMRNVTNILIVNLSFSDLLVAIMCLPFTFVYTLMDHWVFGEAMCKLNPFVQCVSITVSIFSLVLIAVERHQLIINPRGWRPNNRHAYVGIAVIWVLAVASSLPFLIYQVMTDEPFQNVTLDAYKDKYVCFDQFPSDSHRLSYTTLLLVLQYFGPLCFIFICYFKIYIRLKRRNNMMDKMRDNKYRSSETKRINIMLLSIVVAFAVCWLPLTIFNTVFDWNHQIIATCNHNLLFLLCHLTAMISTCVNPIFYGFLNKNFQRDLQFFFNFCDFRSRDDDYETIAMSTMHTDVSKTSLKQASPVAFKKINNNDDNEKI
Kind of experiment: Fluorescence-based counterscreen for agonists of NPY-Y2: cell-based high-throughput dose response assay for agonists of NPY-Y1. It counts as functional.

Experiment [15] has as its target Lysosomal acid glucosylceramidase (Homo sapiens, UniProt P04062). Kind of experiment: Dose response cell-based high throughput screening assay to identify enhancers of beta-glucosidase activity. [Related pubchem assays: 784 ]. It counts as functional.
Experiment [16] addresses T5, Ubiquitin-conjugating enzyme E2 N (Homo sapiens, UniProt P61088).
T5 sequence (P61088 whole entry): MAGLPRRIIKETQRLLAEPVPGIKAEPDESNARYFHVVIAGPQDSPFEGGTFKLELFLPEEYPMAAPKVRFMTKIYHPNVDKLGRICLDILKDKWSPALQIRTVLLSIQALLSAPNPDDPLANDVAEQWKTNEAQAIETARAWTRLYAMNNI
It counts as functional.

Experiment [17] is described as follows: inhibitors of SNCA 5'UTR-driven reporter translation, confirmation, H4 neuroglioma cells, luminescence (AID 1988). It counts as functional, cell-based.
A short description of experiment [18]: cytotoxicity toward NIH3T3 fibroblasts, dose response, counter-screen, cell-based, ATP luminescence, mouse fibroblasts (AID 2010).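 Note: cells exposed to compound for about 90 hours before reading.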 It counts as functional.
Experiment [19] is described as follows: inhibitors of intracellular T. cruzi replication, confirmation, NIH3T3 host cells, beta-gal luminescence (AID 2044).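 Note: intracellular parasites grown in NIH/3T3 mouse fibroblasts as host cells; luminescent beta-galactosidase reporter signal from transgenic T. cruzi replicating inside host cells; inhibitors lower the luminescence signal.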 It counts as functional, cell-based.
The nature of experiment [20]: Luminescence Cell-Based Dose Response HTS to Identify Inhibitors of 5'UTR Stem-Loop Driven Prion Protein mRNA Translation in H4 Neuroglioblastoma Cells. [Related pubchem assays: 1827 (Project Summary), 1813 (Primary HTS)]. The class given is functional.
Experiment [21] in a line: inhibitors of firefly luciferase expression or activity, dose response, H4 neuroglioma cells, luminescence (AID 1990). It counts as functional, cell-based.
Experiment [22] deals with G-protein coupled receptor 35 (Homo sapiens, UniProt Q9HC97). Kind of experiment: GPR35 antagonists blocking zaprinast-driven arrestin recruitment, primary screen, imaging, U2OS, beta-arrestin-GFP, zaprinast agonist (AID 2058).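 Note: antagonist potency meaning inhibition of agonist-induced arrestin redistribution.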 The class given is functional.
The target of experiment [23] is Acyl-homoserine lactone acylase PvdQ (Pseudomonas aeruginosa (strain LESB58), UniProt Q9I194). Kind of experiment: P. aeruginosa PvdQ acylase inhibitors, dose response, biochemical, fluorescence, plate reader and imaging, cherry-picks (AID 493231).
Experiment [24] concerns the target Scavenger receptor class B member 1 (Mus musculus, UniProt Q61009). Nature of the experiment: inhibitors of SR-BI mediated HDL lipid uptake, dose response, ldlA[mSR-BI] cells, fluorescence, cherry pick (AID 493194).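 Note: cellular uptake of fluorescent DiI-labeled HDL measured as cell fluorescence.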 It counts as functional, cell-based.

T2 sequence (Q9NZJ5 whole entry): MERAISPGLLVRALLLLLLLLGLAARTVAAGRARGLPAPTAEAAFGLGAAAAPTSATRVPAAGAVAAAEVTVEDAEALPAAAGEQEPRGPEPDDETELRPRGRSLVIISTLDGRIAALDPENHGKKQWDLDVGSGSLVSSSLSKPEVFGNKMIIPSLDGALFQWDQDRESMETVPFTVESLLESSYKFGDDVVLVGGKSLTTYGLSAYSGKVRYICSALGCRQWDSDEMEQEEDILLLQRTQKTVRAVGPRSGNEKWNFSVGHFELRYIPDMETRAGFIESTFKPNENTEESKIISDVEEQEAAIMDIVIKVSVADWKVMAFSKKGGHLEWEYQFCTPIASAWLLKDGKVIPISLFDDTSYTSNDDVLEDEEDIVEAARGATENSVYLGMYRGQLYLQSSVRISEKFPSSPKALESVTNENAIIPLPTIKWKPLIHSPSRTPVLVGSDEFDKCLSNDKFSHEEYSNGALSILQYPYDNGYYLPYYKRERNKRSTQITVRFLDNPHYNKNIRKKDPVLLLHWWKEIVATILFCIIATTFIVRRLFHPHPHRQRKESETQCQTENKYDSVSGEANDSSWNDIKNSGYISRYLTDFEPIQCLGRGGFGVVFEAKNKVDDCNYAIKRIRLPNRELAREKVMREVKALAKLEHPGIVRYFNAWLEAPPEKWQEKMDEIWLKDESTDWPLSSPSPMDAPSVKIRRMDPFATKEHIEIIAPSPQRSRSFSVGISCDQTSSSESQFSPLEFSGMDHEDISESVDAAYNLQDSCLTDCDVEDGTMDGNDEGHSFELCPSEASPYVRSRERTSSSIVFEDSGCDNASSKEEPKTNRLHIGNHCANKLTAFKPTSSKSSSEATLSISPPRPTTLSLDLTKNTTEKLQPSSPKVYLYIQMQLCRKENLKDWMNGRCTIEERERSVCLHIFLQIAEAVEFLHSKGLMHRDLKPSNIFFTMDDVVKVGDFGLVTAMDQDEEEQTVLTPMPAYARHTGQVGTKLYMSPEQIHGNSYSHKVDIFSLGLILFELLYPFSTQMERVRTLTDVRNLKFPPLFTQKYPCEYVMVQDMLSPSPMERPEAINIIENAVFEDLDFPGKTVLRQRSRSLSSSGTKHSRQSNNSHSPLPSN
T1 sequence (P0DMV8 whole entry): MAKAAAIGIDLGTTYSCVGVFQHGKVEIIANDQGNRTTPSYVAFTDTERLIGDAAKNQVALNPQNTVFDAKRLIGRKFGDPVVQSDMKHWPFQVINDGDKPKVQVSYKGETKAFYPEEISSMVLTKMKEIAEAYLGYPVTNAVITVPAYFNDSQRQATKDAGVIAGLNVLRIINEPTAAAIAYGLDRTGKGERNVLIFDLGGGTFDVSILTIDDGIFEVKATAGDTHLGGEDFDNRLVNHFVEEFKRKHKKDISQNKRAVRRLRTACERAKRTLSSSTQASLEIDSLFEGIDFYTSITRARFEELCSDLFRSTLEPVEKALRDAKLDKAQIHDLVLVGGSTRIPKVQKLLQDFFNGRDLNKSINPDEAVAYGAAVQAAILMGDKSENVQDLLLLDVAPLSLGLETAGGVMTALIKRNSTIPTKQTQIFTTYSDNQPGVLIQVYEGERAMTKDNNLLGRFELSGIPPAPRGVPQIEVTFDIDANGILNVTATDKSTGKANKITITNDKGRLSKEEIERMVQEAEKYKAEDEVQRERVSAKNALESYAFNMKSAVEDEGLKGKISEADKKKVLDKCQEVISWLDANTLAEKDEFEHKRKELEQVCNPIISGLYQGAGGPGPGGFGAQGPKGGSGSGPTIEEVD
Sequence of Acyl-homoserine lactone acylase PvdQ (Q9I194 24-193 limits assumed): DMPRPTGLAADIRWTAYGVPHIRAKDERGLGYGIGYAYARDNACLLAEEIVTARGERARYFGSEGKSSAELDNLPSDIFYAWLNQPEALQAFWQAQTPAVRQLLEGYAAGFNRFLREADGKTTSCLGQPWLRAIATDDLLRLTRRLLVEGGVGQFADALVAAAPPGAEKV
Sequence of Acyl-homoserine lactone acylase PvdQ (Q9I194 217-762 limits assumed): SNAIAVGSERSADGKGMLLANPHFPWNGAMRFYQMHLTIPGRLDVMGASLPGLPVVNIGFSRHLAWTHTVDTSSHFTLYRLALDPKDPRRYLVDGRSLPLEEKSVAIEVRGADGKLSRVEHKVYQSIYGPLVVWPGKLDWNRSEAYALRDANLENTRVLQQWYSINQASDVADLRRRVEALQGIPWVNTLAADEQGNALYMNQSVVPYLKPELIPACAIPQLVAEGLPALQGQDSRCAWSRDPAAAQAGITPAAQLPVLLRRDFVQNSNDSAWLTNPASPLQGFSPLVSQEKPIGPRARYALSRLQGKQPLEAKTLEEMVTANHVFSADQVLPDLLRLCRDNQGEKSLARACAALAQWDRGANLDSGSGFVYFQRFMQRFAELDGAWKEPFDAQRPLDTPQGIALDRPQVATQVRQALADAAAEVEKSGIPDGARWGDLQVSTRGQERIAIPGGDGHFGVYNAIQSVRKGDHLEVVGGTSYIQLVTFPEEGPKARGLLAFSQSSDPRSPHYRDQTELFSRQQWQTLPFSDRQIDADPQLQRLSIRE
Sequence of Scavenger receptor class B member 1 (Q61009 whole entry): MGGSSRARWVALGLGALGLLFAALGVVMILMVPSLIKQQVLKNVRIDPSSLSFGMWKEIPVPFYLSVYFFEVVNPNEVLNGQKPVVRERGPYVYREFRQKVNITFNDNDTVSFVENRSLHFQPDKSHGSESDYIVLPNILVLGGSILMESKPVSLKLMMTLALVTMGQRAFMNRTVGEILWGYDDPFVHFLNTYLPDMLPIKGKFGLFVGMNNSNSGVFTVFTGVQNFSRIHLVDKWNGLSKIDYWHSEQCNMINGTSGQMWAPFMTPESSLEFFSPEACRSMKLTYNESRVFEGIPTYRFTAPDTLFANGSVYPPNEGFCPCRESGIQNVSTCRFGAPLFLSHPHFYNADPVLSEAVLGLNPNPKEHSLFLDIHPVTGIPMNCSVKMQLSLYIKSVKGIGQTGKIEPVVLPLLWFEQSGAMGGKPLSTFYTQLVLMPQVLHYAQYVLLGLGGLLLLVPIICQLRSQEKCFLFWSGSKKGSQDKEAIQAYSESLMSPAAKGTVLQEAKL
Sequence of G-protein coupled receptor 35 (Q9HC97 whole entry): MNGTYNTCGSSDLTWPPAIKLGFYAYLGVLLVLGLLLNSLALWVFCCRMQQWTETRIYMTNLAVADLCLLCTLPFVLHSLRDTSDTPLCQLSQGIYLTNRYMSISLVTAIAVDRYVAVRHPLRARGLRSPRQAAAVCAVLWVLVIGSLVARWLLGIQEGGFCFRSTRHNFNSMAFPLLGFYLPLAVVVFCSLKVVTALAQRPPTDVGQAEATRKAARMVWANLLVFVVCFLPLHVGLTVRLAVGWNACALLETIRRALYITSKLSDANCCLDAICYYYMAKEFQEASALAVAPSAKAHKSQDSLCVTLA
Sequence of Beta-galactosidase (Q8VNN2 whole entry): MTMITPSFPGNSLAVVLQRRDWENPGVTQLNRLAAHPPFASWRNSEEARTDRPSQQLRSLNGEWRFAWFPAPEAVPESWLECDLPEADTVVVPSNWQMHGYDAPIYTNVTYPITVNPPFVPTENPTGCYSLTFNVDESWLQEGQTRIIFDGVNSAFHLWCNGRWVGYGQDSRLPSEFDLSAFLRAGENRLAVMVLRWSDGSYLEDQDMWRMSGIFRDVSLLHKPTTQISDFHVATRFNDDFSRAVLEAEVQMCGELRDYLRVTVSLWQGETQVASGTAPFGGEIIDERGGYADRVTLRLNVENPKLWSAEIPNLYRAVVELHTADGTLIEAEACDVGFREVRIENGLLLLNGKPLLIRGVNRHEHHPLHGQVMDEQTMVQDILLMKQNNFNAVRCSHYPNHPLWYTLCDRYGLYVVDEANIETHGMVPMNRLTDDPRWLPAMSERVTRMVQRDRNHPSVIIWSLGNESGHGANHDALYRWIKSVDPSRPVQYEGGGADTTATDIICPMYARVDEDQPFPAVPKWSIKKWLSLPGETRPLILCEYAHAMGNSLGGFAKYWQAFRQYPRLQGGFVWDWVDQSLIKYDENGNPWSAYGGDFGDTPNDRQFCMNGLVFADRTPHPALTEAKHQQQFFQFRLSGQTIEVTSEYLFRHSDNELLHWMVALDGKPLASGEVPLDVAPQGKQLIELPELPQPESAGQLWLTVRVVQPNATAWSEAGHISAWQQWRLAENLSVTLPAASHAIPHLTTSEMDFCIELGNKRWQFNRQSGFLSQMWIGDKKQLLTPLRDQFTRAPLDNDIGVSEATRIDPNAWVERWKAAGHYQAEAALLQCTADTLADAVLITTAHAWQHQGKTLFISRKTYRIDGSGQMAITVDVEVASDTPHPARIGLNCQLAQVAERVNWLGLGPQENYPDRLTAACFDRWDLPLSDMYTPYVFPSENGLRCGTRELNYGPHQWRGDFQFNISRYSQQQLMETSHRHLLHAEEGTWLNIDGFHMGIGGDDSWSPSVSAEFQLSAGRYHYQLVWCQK
Sequence of Lysosomal acid glucosylceramidase (P04062 whole entry): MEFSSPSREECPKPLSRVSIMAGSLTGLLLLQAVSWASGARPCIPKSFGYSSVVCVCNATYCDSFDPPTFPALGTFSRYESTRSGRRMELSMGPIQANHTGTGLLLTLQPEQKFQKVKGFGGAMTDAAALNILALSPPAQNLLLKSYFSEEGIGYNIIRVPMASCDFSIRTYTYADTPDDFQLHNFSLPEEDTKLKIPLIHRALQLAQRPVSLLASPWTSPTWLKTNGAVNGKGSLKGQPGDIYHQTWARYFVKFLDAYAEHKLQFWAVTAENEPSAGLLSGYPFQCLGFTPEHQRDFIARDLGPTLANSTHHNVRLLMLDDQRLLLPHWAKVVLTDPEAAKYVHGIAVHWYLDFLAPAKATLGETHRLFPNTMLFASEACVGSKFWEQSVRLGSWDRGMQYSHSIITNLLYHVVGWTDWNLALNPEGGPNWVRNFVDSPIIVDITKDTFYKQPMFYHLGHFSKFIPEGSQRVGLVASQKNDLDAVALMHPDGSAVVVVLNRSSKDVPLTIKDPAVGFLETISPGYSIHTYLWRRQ
Sequence of Protein Rev (P05866 whole entry): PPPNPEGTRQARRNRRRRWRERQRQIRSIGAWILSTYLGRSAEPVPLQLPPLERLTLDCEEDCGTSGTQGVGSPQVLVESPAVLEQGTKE

Consider `COCCNC(=O)/C(C#N)=C/c1cn(CC(=O)NCc2ccco2)c2ccccc12`, for which the AC50 in experiment [1] was 174 µM (active).
Turning to `COc1cc(C(c2cc3c(cc2O)OCO3)N2CCOCC2)cc(OC)c1OC` (configuration not stated), the IC50 in experiment [2] is recorded as 9.66 µM (not active).
For `Cc1cccc(C)c1-n1nnnc1SCc1nc(N)nc(N(C)C)n1`, the 50% effective concentration (EC50) in experiment [3] is 8.3 µM (active).
With `COCc1c(Br)c(C)nc(O)c1C#N`, at Trypsin, the AC50 was 72.8 µM (active).
As to `O=C(CSc1ccc2nnc(-c3ccccn3)n2n1)NCc1ccc2c(c1)OCO2`, the concentration for a half-maximal effect (EC50) in experiment [4], in experiment [5] and in experiment [6] was > 79.4 µM (not active) each time.
In the case of `COCCCNC(=O)CC(NS(=O)(=O)c1ccc(C)cc1)c1ccco1` (configuration not stated), the IC50 in [7] and in experiment [8] was > 100 µM (not active) throughout.
`CCSc1nnc(NC(=O)c2cc(-c3ccccc3O)[nH]n2)s1`: the EC50 in [9] and in experiment [10] was > 55.7 µM (not active) in each case.
On to `COc1ccc(NC(=O)Nc2ccc(C(=O)N3CCOCC3)cc2)cc1`, for which the half-inhibitory concentration (IC50) at Leucine aminopeptidase is 31.6 µM (active).
In the case of `CC(C)(C)n1nc2c(c1NC(=O)c1ccccc1)CS(=O)(=O)C2`, in [11], the EC50 was > 50 µM (active).
For the compound `Cc1ccc(C(CCN(Cc2ccccc2)C(=O)c2ccco2)c2ccco2)cc1` (configuration not stated), the concentration for half-maximal inhibition (IC50) on NS3 was 8.82 µM (active); in experiment [12] it was > 66.6 µM (inactive); on Beta-galactosidase it was > 66.6 µM (inactive).
For `COC(=O)c1ccc(CSc2nc3c(c(=O)[nH]2)CCC3)cc1`, the IC50 at Neutrophil collagenase was > 39.8 µM (inactive).
Consider `O=C(CN1C2=NCCN2c2ccccc21)c1ccc(Br)cc1`, for which the IC50 on Protein Rev is > 79.4 µM (not active).
With `C=CCc1ccccc1OCC(O)CN1CCN(c2ccc(C)cc2)CC1` (configuration not stated), the concentration for a half-maximal effect (EC50) is 1.78 µM (active) with HEK293, 14.8 µM (not active) in experiment [13] and 8.5 µM (active) in experiment [14].
As for `Cc1ccc(-n2c(=O)c(C#N)cc3c(=O)n4ccccc4nc32)cc1`, the EC50 in experiment [15] is listed as > 50 µM (not active).
On to `CCN(CC)CCCNc1ccc(-c2nnc(-c3ccc(OCC(C)C)cc3)o2)cn1`, for which the IC50 was > 20 µM (inactive) in experiment [16] and 1.96 µM (active) in [22]. Also, the EC50 is > 30 µM (not active) in experiment [17]; 4.75 µM (active) in experiment [18]; 0.394 µM (active) in the experiment “cells”; < 0.1 µM (active) in experiment [19]; 13.5 µM (active) in experiment [20]; > 120 µM (not active) in experiment [21].
`Clc1ccc2scc(CN3CCCC3)c2c1`: the AC50 in experiment [23] is 2.66 µM (active).
In the case of `Cc1cccc(N2CCN(C(=O)CN3C(=O)NC4(CCCCCC4)C3=O)CC2)c1C`, the AC50 in [24] was 47.4 µM (active).

The term AC50 denotes the concentration giving half of the maximal activity seen. Broadly, the IC50 is the concentration that inhibits the measured activity by half. What is called EC50 is the midpoint of the concentration-response curve.

Source of the values: ChEMBL document CHEMBL1201862, “PubChem BioAssay data set” (2004).
